We go through 1 compound from patent publication US20240252456A1, “ORAL COMPOSITION, SKIN COSMETIC AND HAIR COSMETIC” (MARUZEN PHARMACEUTICALS CO., LTD., priority 2021, published 2024).

Assay [1] concerns Normal human neonatal epidermal keratinocytes (NHEK). In words: Laminin-332 production promotive action test. The format is cell-based. The conditions noted are these: 25 μmol/L, 48 hours, A/B×100 vs no sample. How it is done: Normal human neonatal epidermal keratinocytes (NHEK) were precultured in a 75 cm^2 flask using normal human epidermal keratinocyte growth medium (KGM), and the cells were collected by a trypsin treatment. The collected cells were diluted with a medium obtained by removing BPE from KGM (KGM-BPE) to a cell density of 1.0×10^5 cells/mL, then seeded with 500 μL per well in a 24-well plate, and cultured for 1 day.
After the culturing was completed, the medium was removed, and 500 μL of the test sample (Sample 1, see Table 11 below for final concentration) dissolved in KGM-BPE was added to each well, and culturing was performed for 48 hours. As a control, culturing was performed in the same manner using KGM-BPE to which no sample was added. After the culturing was completed, 100 μL of the medium supernatant was transferred to an ELISA plate and adsorbed to the plate at 37° C. for 2 hours, and then the amount of adsorbed laminin-332 was measured by ELISA method. From the obtained measurement results, the laminin-332 production promotion rate (%) was calculated using the following equation.
Laminin-332 production promotion rate (%)=A/B×100
Terms in the equation represent the following respective ones. • A: Laminin-332 amount with test sample addition • B: Laminin-332 without sample addition

The subject of assay [2] is Mouse macrophage cells (RAW264.7). In words: Nitric oxide (NO) production suppressive action test. It counts as cell-based. The conditions noted are these: RAW264.7, LPS 1 μg/mL, 48 hours. The procedure:
Mouse macrophage cells (RAW264.7) were cultured using Dulbecco's modified Eagle's medium (DMEM) containing 10% FBS, and then the cells were collected using a cell scraper. The collected cells were diluted with phenol red-free DMEM containing 10% FBS to a cell density of 3.0×10^6 cells/mL, then seeded with 100 μL per well in a 96-well plate, and cultured for 4 hours.
After culturing, the medium was removed, 100 μL of the test sample (Sample 1, see Table 26 below for final concentration) dissolved in phenol red-free DMEM containing DMSO at a final concentration of 0.5% and 10% FBS was added to each well, 100 μL of lipopolysaccharide (LPS, final concentration 1 μg/mL, E. coli 0111:B4, available from DIFCO) dissolved in phenol red-free DMEM containing 10% FBS was added, and culturing was performed for 48 hours. As a control, the LPS process was performed in the same manner using, as substitute for the test sample solution, phenol red-free DMEM containing DMSO at a final concentration of 0.5% and 10% FBS to which no sample was added.
The production amount of nitric oxide (NO) was measured using the amount of nitrite ions ([…]) as an index. After the culturing was completed, the same amount of Griess reagent (5 mass % phosphoric acid solution containing 1 mass % sulfanilamide and 0.1 mass % N-1-naphthyl ethylendiamine dihydrochloride) as the culture supernatant was added to the culture solution in each well and reacted for 10 minutes at room temperature. After the reaction, the absorbance at a wavelength of 540 nm was measured. The nitric oxide (NO) production suppression rate (%) was calculated by the following equation based on the nitric oxide (NO) production amount when no sample was added (control).
Terms in the equation represent the following respective ones. • A: NO amount with test sample addition • B: NO amount […]

In a further assay the test system is HAS3 mRNA. In words: Hyaluronic acid synthase 3 (HAS3) mRNA expression promotive action test. The conditions noted are these: 25 μmol/L; NHEK, 24 hours; A/B×100, corrected with GAPDH. It counts as cell-based, human. The procedure: Normal human neonatal epidermal keratinocytes (NHEK) were precultured using normal human epidermal keratinocyte growth medium (KGM), and the cells were collected by a trypsin treatment. The collected cells were diluted with KGM to a cell density of 15×10^4 cells/mL, then seeded with 2 mL portions in a 6-well plate (30×10^4 cells/well), and cultured overnight under conditions of 37° C. and 5% CO2. After culturing, the medium was replaced with normal human epidermal keratinocyte basal medium (KBM, the above KGM without addition of growth additives (hEGF, BPE, insulin, antibacterial agents, hydrocortisone)), and culturing was further performed for 24 hours.
After culturing for 24 hours, the medium was removed, and 2 mL of the test sample (Sample 1, see Table 10 below for final concentration) dissolved in KBM was added to each well, and culturing was performed under conditions of 37° C. and 5% CO2 for 24 hours. As a control, culturing was performed in the same manner using KBM to which no sample was added. After culturing, the medium was removed, total RNA was extracted using ISOGEN II (available from NIPPON GENE CO., LTD.), each RNA amount was measured using a spectrophotometer, and the total RNA was prepared so as to be 150 ng/μL.
For HAS3 and GAPDH as an internal standard, the expression levels of mRNA were measured using the above total RNA as a template. […]

Take `O=C(O)CCc1ccc(O)c(O)c1` [Sample 1, 3,4-Dihydroxyhydrocinnamic acid]: in assay [1], the “Laminin-332 production promotion rate” value is 142. 0%. Further, the “NO production suppression rate” value in assay [2] (31.2 μmol/L) is 14.9%; in assay [2] (125 μmol/L) it was 49.4%; in assay [2] (500 μmol/L) it was 77.8%. In addition, the “HAS3 mRNA expression promotion rate” value in the assay on HAS3 mRNA is given as 173. 5%.
